Experiments:
ALK [WT] = ALK [WT] (Homo sapiens, UniProt Q9UM73); test: Kinase inhibition assay, ALK [WT]; assay type: biochemical
Experimental: (§1) Compound preparation: The test compounds were dissolved in DMSO to make 20 mM stock solutions. The compounds were diluted in DMSO to 0.1 mM (a dilution with 100 times the final concentration) before use, and a 3-fold series gradient dilution with 11 concentrations was made. Dilutions with 4 times of the final concentration were prepared by diluting with buffer when dosing.
(§2) Kinase assay: after preparing the buffer solution, the enzyme was mixed with pre-diluted compounds with different concentrations, and placed at room temperature for 30 minutes in duplicate. The corresponding substrate and ATP were added thereto and reacted at room temperature for 60 minutes (both a negative and a positive control were set). After the reaction, antibody was added for detection, and after incubation at room temperature for 60 minutes, Evnvision detection was carried out, and data was collected. Data was analyzed and fit according to XLfit5 software. IC50 was calculated by the following formula: (IC50=[(ABS test−ABS begin)/(ABS control−ABS begin)]×100).

ALK [L1196M] = ALK [L1196M] (Homo sapiens, UniProt Q9UM73, L1196M); test: Kinase inhibition assay, ALK [L1196M]; assay type: biochemical
Sequence of ALK [L1196M] (Q9UM73 19-1620 L1196M): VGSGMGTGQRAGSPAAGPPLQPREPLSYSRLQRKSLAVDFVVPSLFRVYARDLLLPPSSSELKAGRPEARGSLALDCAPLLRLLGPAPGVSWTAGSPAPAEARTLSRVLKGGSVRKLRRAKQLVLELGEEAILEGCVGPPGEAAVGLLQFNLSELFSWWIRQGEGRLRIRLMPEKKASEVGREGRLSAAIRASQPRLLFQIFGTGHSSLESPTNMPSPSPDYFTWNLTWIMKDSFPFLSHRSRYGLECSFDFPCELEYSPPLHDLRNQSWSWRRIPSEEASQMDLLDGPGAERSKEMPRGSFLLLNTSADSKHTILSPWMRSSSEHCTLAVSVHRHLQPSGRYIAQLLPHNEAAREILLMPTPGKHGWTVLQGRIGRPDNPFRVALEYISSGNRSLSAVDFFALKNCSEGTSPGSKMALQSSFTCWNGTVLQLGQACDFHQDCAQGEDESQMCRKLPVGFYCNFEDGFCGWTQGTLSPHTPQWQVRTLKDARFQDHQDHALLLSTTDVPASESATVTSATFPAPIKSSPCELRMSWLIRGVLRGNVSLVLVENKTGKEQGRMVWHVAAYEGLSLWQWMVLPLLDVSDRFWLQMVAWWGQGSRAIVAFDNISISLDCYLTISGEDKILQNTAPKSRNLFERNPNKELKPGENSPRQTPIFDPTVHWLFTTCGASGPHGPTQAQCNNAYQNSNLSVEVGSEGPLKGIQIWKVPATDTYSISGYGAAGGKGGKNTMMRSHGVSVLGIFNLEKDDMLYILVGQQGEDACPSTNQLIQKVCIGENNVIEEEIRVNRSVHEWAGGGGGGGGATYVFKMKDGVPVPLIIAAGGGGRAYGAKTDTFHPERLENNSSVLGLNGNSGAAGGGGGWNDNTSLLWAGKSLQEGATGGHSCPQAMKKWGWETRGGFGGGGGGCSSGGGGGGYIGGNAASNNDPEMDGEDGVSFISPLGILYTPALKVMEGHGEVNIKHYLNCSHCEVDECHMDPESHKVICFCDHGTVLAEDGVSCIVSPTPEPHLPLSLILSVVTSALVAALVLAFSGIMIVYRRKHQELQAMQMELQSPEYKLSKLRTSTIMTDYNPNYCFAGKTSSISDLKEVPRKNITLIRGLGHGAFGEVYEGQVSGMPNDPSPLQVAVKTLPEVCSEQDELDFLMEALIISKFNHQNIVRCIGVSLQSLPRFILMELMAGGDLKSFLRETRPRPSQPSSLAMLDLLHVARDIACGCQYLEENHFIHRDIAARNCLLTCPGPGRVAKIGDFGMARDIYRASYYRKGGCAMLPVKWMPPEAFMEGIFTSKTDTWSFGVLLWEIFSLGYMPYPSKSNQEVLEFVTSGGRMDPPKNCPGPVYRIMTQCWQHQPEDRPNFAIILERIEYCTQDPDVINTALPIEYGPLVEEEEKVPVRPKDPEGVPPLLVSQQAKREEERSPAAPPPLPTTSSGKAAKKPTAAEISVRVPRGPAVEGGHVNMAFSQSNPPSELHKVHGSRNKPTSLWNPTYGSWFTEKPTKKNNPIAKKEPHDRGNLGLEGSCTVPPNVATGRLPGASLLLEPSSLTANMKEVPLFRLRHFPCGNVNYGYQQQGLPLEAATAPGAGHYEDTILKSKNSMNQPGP
Experimental: as §1, §2

[1] = Metabolic stability in human liver microsomes; assay type: in vitro ADME; settings: pH 7.4, 1 μM compound, 0.5 mg/mL protein; for microsomal CLint at 1 μM: read-out: CLint (uL/min/mg), Human liver microsome experiment; for half-life at 1 μM: read-out: t1/2 (min), Human liver microsome experiment
Experimental: (§3) Experiments in microsomes: Human liver microsomes: 0.5 mg/mL, Xenotech; Rat liver microsomes: 0.5 mg/mL, Xenotech; Coenzyme (NADPH/NADH): 1 mM, Sigma Life Science; Magnesium chloride: 5 mM, 100 mM phosphate buffer (pH 7.4).
(§4) Preparation of stock solution: Powder of the example compounds was accurately weighed and dissolved in DMSO to 5 mM. Preparation of phosphate buffer (100 mM, pH7.4): A pre-formulated 0.5M potassium dihydrogen phosphate (150 mL) was mixed with 0.5M dibasic potassium phosphate (700 mL). The pH of the mixture was adjusted to 7.4 with 0.5M dibasic potassium phosphate solution. The mixture was diluted 5-fold with ultrapure water before use, and magnesium chloride was added to obtain a phosphate buffer (100 mM) containing 100 mM potassium phosphate, 3.3 mM magnesium chloride, pH7.4. A NADPH regeneration system solution (containing 6.5 mM NADP, 16.5 mM G-6-P, 3 U/mL G-6-PD, 3.3 mM magnesium chloride) was prepared and placed on wet ice prior to use. Preparation of stop solution: acetonitrile solution containing 50 ng/mL propranolol hydrochloride and 200 ng/mL tolbutamide (internal standard). 25057.5 μL of phosphate buffer (pH 7.4) was taken into a 50 mL centrifuge tube, to which 812.5 μL human liver microsomes were added, and mixed to obtain a liver microsome dilution solution with a protein concentration of 0.625 mg/mL. 25057.5 μL of phosphate buffer (pH 7.4) was taken into a 50 mL centrifuge tube, to which 812.5 μL SD rat liver microsomes were added, and mixed to obtain a liver microsome dilution solution with a protein concentration of 0.625 mg/mL.
(§5) Incubation of the samples: The stock solution of the respective compound was respectively diluted to 0.25 mM with an aqueous solution containing 70% acetonitrile, and used as a working solution, ready for use. 398 μL of the dilution solution of human liver microsomes or rat liver microsome were added to a 96-well incubation plate (N=2), respectively, and 2 μL of 0.25 mM working solution was added and mixed.
(§6) Metabolic stability assay: 300 μL of pre-chilled stop solution was added to each well of a 96-well deep well plate and placed on ice as a stop plate. The 96 well incubation plate and NADPH regeneration system were placed in a 37° C. water bath box, shaken at 100 rpm and pre-incubated for 5 min. 80 μL of incubation solution was taken out from each well of the incubation plate and added to the stop plate, mixed, and replenished with 20 μL of NADPH regeneration system solution as a 0-min sample. 80 μL of NADPH regeneration system solution was added to each well of the incubation plate to start the reaction and start counting. […] Separately, 100 μL of the reaction solution was taken at 10, 30, and 90 min reaction, respectively, added to a stop plate, and vortexed for 3 minutes to terminate the reaction. The stop plate was centrifuged at 5000×g at 4° C. for 4 min. 100 μL of the supernatant was added to a 96-well plate to which 100 μL of distilled water was previously added, mixed, and analyzed by LC-MS/MS.
(§7) Data analysis: The peak areas of the corresponding compound and internal standard were detected by LC-MS/MS system, and the ratio of the peak area of the compound to the internal standard was calculated.

ALK[L1196M] (Ba/F3) [2] = test: Cytotoxicity test (CellTiter-Glo), BaF3 EML4-ALK L1196M; assay type: cell-based; settings: Ba/F3 cells
Experimental: (§8) The in vitro anti-proliferative activity of the compounds of the present disclosure against three types of cells that are cultured in vitro was tested by CellTiter-Glo method.
(§9) Cell lines: BaF3 parental; BaF3 [EML4-ALK] (From WuXi PharmaTech) and BaF3 [EMF4-AFK F1196M] (From WuXi PharmaTech); wherein, BaF3 parental was cultured in RPMI1640 medium containing 10 ng/ml IL-3, 10% fetal bovine serum, 100 U/ml penicillin, and 100 μg/ml streptomycin, BaF3 [EMF4-AFK] and BaF3 [EMF4-AFK F1196M] were cultured in RPMI1640 medium containing 10% fetal bovine serum, 100 U/ml penicillin, and 100 μg/ml streptomycin.
(§10) Reagents and materials: RPMI-1640 (GIBCO, Cat. No. A10491-01); fetal bovine serum (GIBCO, Cat. No. 10099141); 0.25% trypsin-EDTA (GIBCO, Cat. No. 25200); penicillin-streptomycin, liquid (GIBCO, Cat. No. 15140-122); DMSO (Sigma, Cat. No. D2650); CellTiter-Glo Test Kit (Promega, Cat. No. G7572), and 96-well plate (Corning, Cat. No. 3365).
(§11) 1. The test compounds were dissolved in DMSO to make stock solutions and subjected to a series gradient dilution to give solutions with 10-fold working concentration.
(§12) 2. The cells in the logarithmic growth phase were diluted with the culture solution to adjust to the specific cell concentration, 90 μi of cell suspension was added to the 96-well plate to make the cell density reach the specified concentration. The plate was incubated in a incubator at 37° C., containing 5% carbon dioxide gas overnight.
(§13) 3. 10 μl drug solutions were added to each well of the 96-well plate inoculated with cells. 10 concentrations of the compounds were tested starting from the highest concentration of 20 μM with a 3-fold series gradient dilution in duplicate.
(§14) 4. After continuously cultured for 72 hours, the cells were detected by CellTiter-Glo for the cell viability. The dose-effect curve was made using GraphPad Prism software and IC50 was calculated.

ALK[L1196M] (Ba/F3) [3] = target: T1, ALK[L1196M] (Ba/F3) (Homo sapiens, UniProt Q9UM73, L1196M, cells depend on it); test: as above; assay type: cell-based; settings: 72 hours, CellTiter-Glo; read-out: IC50(nM) ALK[L1196M] (Ba/F3)
T1 construct: IC50(nM) ALK[L1196M]; (Ba/F3); other: 72 hours, CellTiter-Glo; BaF3 [EMF4-AFK F1196M]; fused on or other part: Q9HC35 (Echinoderm microtubule-associated protein-like 4)
T1 sequence (Q9UM73 whole entry L1196M, the tested form may be a part): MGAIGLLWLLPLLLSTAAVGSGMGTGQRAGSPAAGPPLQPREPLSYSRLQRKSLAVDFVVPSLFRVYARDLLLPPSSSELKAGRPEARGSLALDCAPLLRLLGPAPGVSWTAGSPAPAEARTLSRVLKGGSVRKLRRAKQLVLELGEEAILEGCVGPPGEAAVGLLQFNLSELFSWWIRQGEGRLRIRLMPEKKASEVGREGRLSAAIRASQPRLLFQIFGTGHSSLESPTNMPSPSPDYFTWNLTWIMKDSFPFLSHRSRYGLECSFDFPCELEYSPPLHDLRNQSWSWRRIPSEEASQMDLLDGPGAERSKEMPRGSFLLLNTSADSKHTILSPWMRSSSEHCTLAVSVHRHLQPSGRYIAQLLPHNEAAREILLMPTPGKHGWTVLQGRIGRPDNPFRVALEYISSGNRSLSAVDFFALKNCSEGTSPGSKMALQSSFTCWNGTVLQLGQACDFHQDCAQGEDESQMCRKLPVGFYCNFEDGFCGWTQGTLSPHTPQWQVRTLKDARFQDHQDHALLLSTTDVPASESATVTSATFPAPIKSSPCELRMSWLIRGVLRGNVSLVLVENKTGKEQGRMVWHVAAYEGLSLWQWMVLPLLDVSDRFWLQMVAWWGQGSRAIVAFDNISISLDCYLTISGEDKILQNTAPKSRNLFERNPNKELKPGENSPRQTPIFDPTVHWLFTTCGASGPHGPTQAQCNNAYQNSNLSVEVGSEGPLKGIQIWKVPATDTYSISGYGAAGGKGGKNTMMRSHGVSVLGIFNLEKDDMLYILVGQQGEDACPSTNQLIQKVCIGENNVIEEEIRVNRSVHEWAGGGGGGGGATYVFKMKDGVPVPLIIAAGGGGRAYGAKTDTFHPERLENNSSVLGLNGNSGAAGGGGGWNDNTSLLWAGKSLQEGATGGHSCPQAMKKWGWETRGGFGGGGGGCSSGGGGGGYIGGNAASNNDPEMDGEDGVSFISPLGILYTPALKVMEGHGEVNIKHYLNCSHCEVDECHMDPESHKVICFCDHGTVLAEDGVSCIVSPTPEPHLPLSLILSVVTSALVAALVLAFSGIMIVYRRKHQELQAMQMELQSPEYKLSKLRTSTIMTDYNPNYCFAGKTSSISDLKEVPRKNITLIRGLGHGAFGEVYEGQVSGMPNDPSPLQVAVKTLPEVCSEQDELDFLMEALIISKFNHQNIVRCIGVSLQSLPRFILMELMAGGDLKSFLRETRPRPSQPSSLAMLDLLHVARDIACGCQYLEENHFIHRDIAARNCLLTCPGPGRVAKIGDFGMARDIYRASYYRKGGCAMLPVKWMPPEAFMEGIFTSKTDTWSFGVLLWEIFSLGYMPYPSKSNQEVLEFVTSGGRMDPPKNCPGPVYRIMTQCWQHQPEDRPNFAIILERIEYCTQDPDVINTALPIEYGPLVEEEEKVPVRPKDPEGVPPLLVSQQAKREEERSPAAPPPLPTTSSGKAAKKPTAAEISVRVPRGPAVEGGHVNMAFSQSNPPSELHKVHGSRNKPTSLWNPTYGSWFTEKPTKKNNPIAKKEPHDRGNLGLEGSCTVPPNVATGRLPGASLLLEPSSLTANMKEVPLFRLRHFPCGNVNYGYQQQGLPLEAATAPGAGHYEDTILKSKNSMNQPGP
Experimental: as §8, §9, §10, §11, §12, §13, §14

BaF3 [EML4-ALK] [4] = target: T2, BaF3 [EML4-ALK] (Homo sapiens, UniProt Q9UM73); test: Cytotoxicity test (CellTiter-Glo), BaF3 [EML4-ALK]; assay type: cell-based; settings: 72 hours, CellTiter-Glo; read-out: IC50(nM) ALK (Ba/F3)
T2 construct: IC50(nM) ALK (Ba/F3); other: 72 hours, CellTiter-Glo; BaF3 [EML4-ALK]; fused on or other part: Q9HC35 (Echinoderm microtubule-associated protein-like 4)
T2 sequence (Q9UM73 whole entry, change not shown, the tested form may be a part): as the sequence (Q9UM73 whole entry L1196M, the tested form may be a part) above, with M1196L counted along it
Experimental: as §8, §9, §10, §11, §12, §13, §14

BaF3 [EML4-ALK] [5] = test: Cytotoxicity test (CellTiter-Glo), BaF3 [EML4-ALK]; assay type: cell-based; settings: Ba/F3 cells
Experimental: as §8, §9, §10, §11, §12, §13, §14

BaF3 parental = test: Cytotoxicity test (CellTiter-Glo), BaF3 parental; assay type: cell-based; settings: Mus musculus, 72 hours, read-out: IC50(nM) parental (Ba/F3)
Experimental: as §8, §9, §10, §11, §12, §13, §14

[6] = Metabolic stability in rat liver microsomes; assay type: in vitro ADME; settings: SD, pH 7.4, 1 μM compound, 0.5 mg/mL protein; for microsomal CLint at 1 μM: read-out: CLint (uL/min/mg), Rat liver microsome experiment; for half-life at 1 μM: read-out: t1/2 (min), Rat liver microsome experiment
Experimental: as §3, §4, §5, §6, §7

Sequence of ALK [WT] (Q9UM73 19-1620): as the sequence (Q9UM73 19-1620 L1196M) above, with M1178L counted along it

Structure (SMILES) | IC50 (ALK [WT]) | IC50 (ALK [L1196M]) | microsomal CLint at 1 μM [1] | half-life at 1 μM [1] | Selectivity parental/ALK[L1196M] (ALK[L1196M] (Ba/F3) [2]) | GI50 (ALK[L1196M] (Ba/F3) [3]) | GI50 (BaF3 [EML4-ALK] [4]) | Selectivity parental/ALK (BaF3 [EML4-ALK] [5]) | IC50 (BaF3 parental) | microsomal CLint at 1 μM [6] | half-life at 1 μM [6]
COc1cc(CN(C)C)ccc1Nc1ncc(Cl)c(Nc2ccccc2P(C)(C)=O)n1 [Example 1, (2-((5-chloro-2-((4-((dimethylamino)methyl)-2-methoxyphenyl)amino)pyrimidin-4-yl)amino)phenyl)dimethylphosphine oxide] | 5 to 10 nM | 5 to 10 nM | 10.6 µL/min/mg | 131 min | <50 | 100 to 200 nM | 50 to 100 nM | <50 | ≥ 1000 nM | 43.4 µL/min/mg | 31.9 min
COc1cc(CCN)ccc1Nc1ncc(Cl)c(Nc2ccccc2P(C)(C)=O)n1 [Example 2, (2-((2-((4-(2-aminoethyl)-2-methoxyphenyl)amino)-5-chloropyrimidin-4-yl)amino)phenyl)dimethylphosphine oxide] | ≤ 2 nM | 2 to 5 nM | 8.7 µL/min/mg | 160 min | <50 | 200 to 1000 nM | 100 to 200 nM | <50 | ≥ 1000 nM | 8.4 µL/min/mg | 165 min
COc1cc(CCN(C)C)ccc1Nc1ncc(Cl)c(Nc2ccccc2P(C)(C)=O)n1 [Example 3, (2-((5-chloro-2-((4-(2-(dimethylamino)ethyl)-2-methoxyphenyl)amino)pyrimidin-4-yl)amino)phenyl)dimethylphosphine oxide] | ≤ 2 nM | 2 to 5 nM | 15.4 µL/min/mg | 90.1 min | <50 | 100 to 200 nM | 25 to 50 nM | 50 to 100 | ≥ 1000 nM | 50.4 µL/min/mg | 27.5 min
COc1cc(CCN2CCCCC2)ccc1Nc1ncc(Cl)c(Nc2ccccc2P(C)(C)=O)n1 [Example 4, (2-((5-chloro-2-((2-methoxy-4-(2-(piperidin-1-yl)ethyl)phenyl)amino)pyrimidin-4-yl)amino)phenyl)dimethylphosphine oxide] | ≤ 2 nM | 2 to 5 nM | 26.7 µL/min/mg | 51.9 min | <50 | 50 to 100 nM | < 25 nM | 200 to 500 | ≥ 1000 nM | 34.7 µL/min/mg | 39.9 min
COc1cc(CCN2CCN(C)CC2)ccc1Nc1ncc(Cl)c(Nc2ccccc2P(C)(C)=O)n1 [Example 5, (2-((5-chloro-2-((2-methoxy-4-(2-(4-methylpiperazin-1-yl)ethyl)phenyl)amino)pyrimidin-4-yl)amino)phenyl)dimethylphosphine oxide] | ≤ 2 nM | ≤ 2 nM | 17.3 µL/min/mg | 80 min | 100 to 200 | 25 to 50 nM | < 25 nM | 200 to 500 | ≥ 1000 nM | 35.9 µL/min/mg | 38.6 min
COc1cc(CCN2CCOCC2)ccc1Nc1ncc(Cl)c(Nc2ccccc2P(C)(C)=O)n1 [Example 6, (2-((5-chloro-2-((2-methoxy-4-(2-morpholinoethyl)phenyl)amino)pyrimidin-4-yl)amino)phenyl)dimethylphosphine oxide] | 2 to 5 nM | 2 to 5 nM | 29.1 µL/min/mg | 47.6 min | <50 | 100 to 200 nM | < 25 nM | 200 to 500 | ≥ 1000 nM | 85.1 µL/min/mg | 16.3 min
COc1cc(C(C)N)ccc1Nc1ncc(Cl)c(Nc2ccccc2P(C)(C)=O)n1 (centres unmarked) [Example 7, (2-((2-((4-(1-aminoethyl)-2-methoxyphenyl)amino)-5-chloropyrimidin-4-yl)amino)phenyl)dimethylphosphine oxide] | 2 to 5 nM | 2 to 5 nM | 5.7 µL/min/mg | 244 min | <50 | 200 to 1000 nM | 50 to 100 nM | <50 | ≥ 1000 nM | 4.1 µL/min/mg | 340 min

— patent US11254696B2, “Dianilinopyrimidine compound for inhibiting kinase activity” (Shenzhen Targetrx, Inc., priority 2017, dated 2022)
